Drawing on US11066369B2, “N-(pyridin-2-yl)pyridine-sulfonamide derivatives and their use in the treatment of disease” (Novartis AG, priority 2016, dated 2021), this text covers Emax and EC50 for 27 compounds.

pEC50: −log10 of the molar value.

For the assay, the target named is T1, horseradish peroxidase (HRP) tagged delF508-CFTR (Homo sapiens, UniProt P13569, DEL508-508).
T1 construct: expressed in transfected cells
Kind of assay: Measurement of delF508-CFTR-HRP surface expression in CFBE41o- cells.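 On DelF508-CFTR-HRP Amax %: percent efficacy relative to reference corrector lumacaftor.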 The class given is cell-based. To be noted: delF508-CFTR-HRP surface expression, CFBE41o- cells; for Emax: read-out: DelF508-CFTR-HRP Amax %; for pEC50: read-out: DelF508-CFTR-HRP EC50. The text has this:
Measurement of delF508-CFTR-HRP Surface Expression in CFBE41o-Cells
This assay quantifies the cell surface expressions of the mutant CFTR channel using an extracellular HRP tag.
A cellular assay was developed to measure surface expression of horseradish peroxidase (HRP) tagged delF508-CFTR in the human bronchial epithelial immortalized CFBE41o-cell line (Phuan, P. W., et al, (2014) Molecular Pharmacology 86:42-51). Specifically, the HRP sequence was inserted into the fourth extracellular loop of delF508-CFTR and stably expressed in CFBE41o-cells. Cells were seeded in 384 well plate at a density of 5000 cells/well and incubated at 37° C. for 12 to 24 hours in medium (Gibco MEM #11095, 10% FBS, 10 mM HEPES, […], 200 μg/mL G418, 3 μg/mL Puromycin). The delF508-CFTR-HRP expression was induced with 500 ng/mL doxycycline (Sigma D-9891, dissolved in H2O and sterile filtered) in medium and the cells were incubated at 37° C. for 48h. Old medium was removed and fresh medium was added containing 500 ng/mL doxycycline and unknown test compound at required test concentration in DMSO, not exceeding 0.5% final DMSO concentration. The highest concentration tested was 10 μM with a 10-point concentration response curve using a 3-fold dilution. After addition of compounds, the cells were incubated for 24h at 37° C. On the final day, cells were washed four times in PBS containing 1 mM MgCl2 and 0.1 mM CaCl2. HRP-Substrate (SuperSignal ELISA Pico, Fisher #37069) 20 μl/well was added and the luminescence signal was determined (Viewlux, Perkin Elmer). Light was emitted upon addition of exogenous HRP-Substrate only when delF508-CFTR-HRP reached the cell surface and the HRP tag was accessible to the HRP-Substrate (note: HRP-Substrate cannot cross the lipid bilayer to reach delF508-CFTR-HRP misfolded within the cell).
The median activity for the lowest concentration of the compounds on each assay plate was calculated and this value was used to normalize the signal for each well on the respective plate. Three replicates at each concentrations for every compound were run to determine one EC50. The median value was determined and used to calculate compound activities as described below. Effective half maximal values (EC50) were calculated for each compound by performing logistic regression on measured dose-response data points using the equation:
[formula] where “Y” is the observed activity, “Bottom” is the lowest observed value, “Top” is the highest observed value, and the “Hill coefficient” gives the largest absolute value of the slope. The curve fitting is carried out by a curve fitting program implemented at GNF using Matlab (Mathworks).
The dose response curves also were used to calculate Fold Change (FC) using the equation: […]
Compound efficacy relative to the reference compound 3-(6-(1-(2,2-difluorobenzo[d][1,3]dioxol-5-yl)cyclopropane-1-carboxamido)-3-methylpyridin-2-yl)benzoic acid was determined using the following formula: […]

T1 sequence (P13569 with tags, fused parts or gaps DEL508-508): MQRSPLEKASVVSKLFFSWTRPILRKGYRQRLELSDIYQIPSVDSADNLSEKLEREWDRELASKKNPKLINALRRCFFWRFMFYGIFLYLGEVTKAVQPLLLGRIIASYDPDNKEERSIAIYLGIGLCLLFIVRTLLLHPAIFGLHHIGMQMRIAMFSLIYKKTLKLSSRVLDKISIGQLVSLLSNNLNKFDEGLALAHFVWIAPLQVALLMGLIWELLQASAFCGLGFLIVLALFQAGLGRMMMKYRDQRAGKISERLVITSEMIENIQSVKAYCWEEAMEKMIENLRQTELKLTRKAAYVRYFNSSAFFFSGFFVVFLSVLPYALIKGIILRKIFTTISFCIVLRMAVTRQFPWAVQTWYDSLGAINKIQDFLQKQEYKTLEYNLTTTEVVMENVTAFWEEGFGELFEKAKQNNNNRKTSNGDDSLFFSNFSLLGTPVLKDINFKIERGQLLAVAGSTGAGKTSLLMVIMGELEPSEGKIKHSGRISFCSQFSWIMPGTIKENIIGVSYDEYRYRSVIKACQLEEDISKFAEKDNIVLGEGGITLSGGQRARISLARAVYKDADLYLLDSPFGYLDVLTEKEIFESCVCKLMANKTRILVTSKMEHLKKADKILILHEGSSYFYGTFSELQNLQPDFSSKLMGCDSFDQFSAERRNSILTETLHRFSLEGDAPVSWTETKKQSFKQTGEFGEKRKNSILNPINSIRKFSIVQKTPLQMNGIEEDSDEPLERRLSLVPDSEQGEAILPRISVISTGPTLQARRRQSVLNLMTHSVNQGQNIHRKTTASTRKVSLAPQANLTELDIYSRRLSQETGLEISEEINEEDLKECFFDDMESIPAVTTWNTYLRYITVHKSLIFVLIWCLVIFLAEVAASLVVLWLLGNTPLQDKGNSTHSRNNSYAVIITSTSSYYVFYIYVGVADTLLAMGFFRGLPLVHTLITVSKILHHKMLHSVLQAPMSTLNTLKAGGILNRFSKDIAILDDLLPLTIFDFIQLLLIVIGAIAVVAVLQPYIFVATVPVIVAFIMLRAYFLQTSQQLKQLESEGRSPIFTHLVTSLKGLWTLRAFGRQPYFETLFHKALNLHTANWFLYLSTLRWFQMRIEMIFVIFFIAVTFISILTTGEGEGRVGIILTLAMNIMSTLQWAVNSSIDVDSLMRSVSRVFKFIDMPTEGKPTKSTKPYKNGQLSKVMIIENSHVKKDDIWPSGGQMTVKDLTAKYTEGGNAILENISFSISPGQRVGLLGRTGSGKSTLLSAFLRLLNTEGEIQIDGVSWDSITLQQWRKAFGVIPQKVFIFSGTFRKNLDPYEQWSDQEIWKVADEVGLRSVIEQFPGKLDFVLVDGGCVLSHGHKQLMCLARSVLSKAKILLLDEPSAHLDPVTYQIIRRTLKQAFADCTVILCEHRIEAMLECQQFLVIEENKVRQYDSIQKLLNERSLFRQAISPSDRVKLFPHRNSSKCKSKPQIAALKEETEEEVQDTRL

Broadly, the pEC50 is the negative decadic logarithm of the EC50, by convention in mol/L. On to `[2H]C([2H])([2H])c1ccccc1-c1nc(NS(=O)(=O)c2cccc(N)n2)ccc1Cl` [Example 20, 6-amino-N-(5-chloro-6-(2-(methyl-d3)phenyl)pyridin-2-yl)pyridine-2-sulfonamide], for which the Emax came to 499% and the pEC50 is 5.75.
On the same counts, the results for `Nc1cccc(S(=O)(=O)Nc2ccc(Cl)c(-c3cc(F)ccc3C3CC3)n2)n1` [Example 21, 6-amino-N-(5-chloro-6-(2-cyclopropyl-5-fluorophenyl)pyridin-2-yl)pyridine-2-sulfonamide] are 493% and 5.87.
In the case of `Cc1ccccc1-c1nc(NS(=O)(=O)c2cccc(N)n2)cc(C(F)(F)F)c1Cl` [Example 22, 6-amino-N-(5-chloro-6-(o-tolyl)-4-(trifluoromethyl)pyridin-2-yl)pyridine-2-sulfonamide], the Emax was 490% and the negative logarithm of the EC50 (pEC50) is 5.79.
On the same counts, the results for `Cc1ccccc1-c1nc(NS(=O)(=O)c2cccc(N)n2)ccc1Br` [Example 23, 6-amino-N-(5-bromo-6-(o-tolyl)pyridin-2-yl)pyridine-2-sulfonamide] are 486% and 5.73.
Taken in the same sequence, the figures for `Nc1cccc(S(=O)(=O)Nc2ccc(Cl)c(-c3ccccc3Cl)n2)n1` [Example 24, 6-amino-N-(5-chloro-6-(2-chlorophenyl)pyridin-2-yl)pyridine-2-sulfonamide] were 485% and 5.84.
In the case of `[2H]C([2H])([2H])c1ccccc1-c1nc(NS(=O)(=O)c2ccnc(N)c2)ccc1Cl` [Example 26, 2-amino-N-(5-chloro-6-(2-(methyl-d3)phenyl)pyridin-2-yl)pyridine-4-sulfonamide], the Emax is 450% and the pEC50 was 5.66.
Regarding `Nc1cccc(S(=O)(=O)Nc2ccc(Cl)c(-c3ccc(F)cc3C3CC3)n2)n1` [Example 27, 6-amino-N-(5-chloro-6-(2-cyclopropyl-4-fluorophenyl)pyridin-2-yl)pyridine-2-sulfonamide], the Emax turned out to be 430% and the pEC50 was 5.77.
As to `CCc1ccccc1-c1nc(NS(=O)(=O)c2cccc(N)n2)ccc1Cl` [Example 29, 6-amino-N-(5-chloro-6-(2-ethylphenyl)pyridin-2-yl)pyridine-2-sulfonamide], the Emax was found to be 429% and the pEC50 was 5.97.
Taken in the same sequence, the figures for `Cc1cc(F)cc(C)c1-c1nc(NS(=O)(=O)c2cccc(N)n2)ccc1Cl` [Example 30, 6-amino-N-(5-chloro-6-(4-fluoro-2,6-dimethylphenyl)pyridin-2-yl)pyridine-2-sulfonamide] were 421% and 5.77.
Taken in the same sequence, the figures for `Cc1cccc(F)c1-c1nc(NS(=O)(=O)c2cccc(N)n2)ccc1Cl` [Example 31, 6-amino-N-(5-chloro-6-(2-fluoro-6-methylphenyl)pyridin-2-yl)pyridine-2-sulfonamide] were 418% and 5.88.
As for `Cc1cc(C)c(-c2nc(NS(=O)(=O)c3cccc(N)n3)ccc2Cl)c(C)c1` [Example 32, 6-amino-N-(5-chloro-6-mesitylpyridin-2-yl)pyridine-2-sulfonamide], the Emax turned out to be 412% and the pEC50 was 5.78.
Taken in the same sequence, the figures for `Cc1ccccc1-c1nc(NS(=O)(=O)c2nc(N)ccc2F)ccc1Cl` [Example 33, 6-amino-N-(5-chloro-6-(o-tolyl)pyridin-2-yl)-3-fluoropyridine-2-sulfonamide] were 404% and 5.66.
On the same counts, the results for `CC(C)c1ccccc1-c1nc(NS(=O)(=O)c2cccc(N)n2)ccc1F` [Example 35, 6-amino-N-(5-fluoro-6-(2-isopropylphenyl)pyridin-2-yl)pyridine-2-sulfonamide] are 398% and 5.68.
Take `Cc1cc(F)ccc1-c1nc(NS(=O)(=O)c2cccc(N)n2)ccc1Cl` [Example 37, 6-amino-N-(5-chloro-6-(4-fluoro-2-methylphenyl)pyridin-2-yl)pyridine-2-sulfonamide]: the Emax stood at 386% and the pEC50 was 5.64.
In the case of `Cc1ccc(Cl)c(-c2nc(NS(=O)(=O)c3cccc(N)n3)ccc2Cl)c1F` [Example 38, 6-amino-N-(5-chloro-6-(6-chloro-2-fluoro-3-methylphenyl)pyridin-2-yl)pyridine-2-sulfonamide], the Emax was 376% and the pEC50 is 5.70.
On the same counts, the results for `Nc1cccc(S(=O)(=O)Nc2ccc(Cl)c(-c3c(F)cccc3Cl)n2)n1` [Example 39, 6-amino-N-(5-chloro-6-(2-chloro-6-fluorophenyl)pyridin-2-yl)pyridine-2-sulfonamide] are 374% and 5.72.
For `Cc1ccccc1-c1nc(NS(=O)(=O)c2ccc(N)nc2)ccc1Cl` [Example 40, 6-amino-N-(5-chloro-6-(o-tolyl)pyridin-2-yl)pyridine-3-sulfonamide], the Emax was 373% and the pEC50 is 5.63.
On the same counts, the results for `CC(C)c1ccccc1-c1nc(NS(=O)(=O)c2ccc(N)nc2)ccc1Cl` [Example 45, 6-amino-N-(5-chloro-6-(2-isopropylphenyl)pyridin-2-yl)pyridine-3-sulfonamide] are 345% and 5.91.
Taken in the same sequence, the figures for `Cc1ccc(F)cc1-c1nc(NS(=O)(=O)c2ccnc(N)c2)ccc1Cl` [Example 46, 2-amino-N-(5-chloro-6-(5-fluoro-2-methylphenyl)pyridin-2-yl)pyridine-4-sulfonamide] were 339% and 5.71.
Taken in the same sequence, the figures for `Cc1cccc(C)c1-c1nc(NS(=O)(=O)c2ccc(N)nc2)ccc1Cl` [Example 47, 6-amino-N-(5-chloro-6-(2,6-dimethylphenyl)pyridin-2-yl)pyridine-3-sulfonamide] were 335% and 5.86.
For `CC(F)(F)c1ccccc1-c1nc(NS(=O)(=O)c2cccc(N)n2)ccc1Cl` [Example 48, 6-amino-N-(5-chloro-6-(2-(1,1-difluoroethyl)phenyl)pyridin-2-yl)pyridine-2-sulfonamide], the Emax came out at 334% and the negative logarithm of the EC50 (pEC50) was 5.63.
On the same counts, the results for `Cc1ccc(C(F)(F)F)cc1-c1nc(NS(=O)(=O)c2ccnc(N)c2)ccc1Cl` [Example 49, 2-amino-N-(5-chloro-6-(2-methyl-5-(trifluoromethyl)phenyl)pyridin-2-yl)pyridine-4-sulfonamide] are 333% and 5.52.
Taken in the same sequence, the figures for `CC(C)c1ccccc1-c1nc(NS(=O)(=O)c2cccc(N)n2)ccc1Cl` [Example 50, 6-amino-N-(5-chloro-6-(2-isopropylphenyl)pyridin-2-yl)pyridine-2-sulfonamide] were 332% and 6.17.
Take `Cc1ccc(C(F)(F)F)cc1-c1nc(NS(=O)(=O)c2cccc(N)n2)ccc1Cl` [Example 51, 6-amino-N-(5-chloro-6-(2-methyl-5-(trifluoromethyl)phenyl)pyridin-2-yl)pyridine-2-sulfonamide]: the Emax is 332% and the pEC50 was 5.70.
As to `Nc1cccc(S(=O)(=O)Nc2ccc(Cl)c(-c3c(Cl)cccc3C(F)(F)F)n2)n1` [Example 52, 6-amino-N-(5-chloro-6-(2-chloro-6-(trifluoromethyl)phenyl)pyridin-2-yl)pyridine-2-sulfonamide], the Emax worked out at 327% and the pEC50 is 5.86.
Taken in the same sequence, the figures for `Cc1cccc(C(F)(F)F)c1-c1nc(NS(=O)(=O)c2cccc(N)n2)ccc1Cl` [Example 53, 6-amino-N-(5-chloro-6-(2-methyl-6-(trifluoromethyl)phenyl)pyridin-2-yl)pyridine-2-sulfonamide] were 325% and 5.73.
For `Nc1ccc(S(=O)(=O)Nc2ccc(Cl)c(-c3ccccc3C3CC3)n2)cn1` [Example 54, 6-amino-N-(5-chloro-6-(2-cyclopropylphenyl)pyridin-2-yl)pyridine-3-sulfonamide], the Emax amounted to 305% and the negative-log EC50 (pEC50) was 5.63.
